According to ChEMBL document CHEMBL5705893, “Targeting the mitotic checkpoint for cancer therapy with NMS-P715, an inhibitor of MPS1 kinase” (Cancer Res, 2010):
Activity calls are given as the source filed them. No cut-off for these calls is given here.

Key:
[1] = molecular target: Protein-tyrosine kinase 6 (Homo sapiens, UniProt Q13882); assay: Inhibition of recombinant BRK (unknown origin)
[2] = molecular target: Cyclin-dependent kinase 1/cyclin B1 (Homo sapiens, UniProt P06493); assay: Inhibition of recombinant CDK1/CYCB (unknown origin); type: protein-complex assay
Cyclin-dependent kinase 1/cyclin B1, sequence (P06493 whole entry): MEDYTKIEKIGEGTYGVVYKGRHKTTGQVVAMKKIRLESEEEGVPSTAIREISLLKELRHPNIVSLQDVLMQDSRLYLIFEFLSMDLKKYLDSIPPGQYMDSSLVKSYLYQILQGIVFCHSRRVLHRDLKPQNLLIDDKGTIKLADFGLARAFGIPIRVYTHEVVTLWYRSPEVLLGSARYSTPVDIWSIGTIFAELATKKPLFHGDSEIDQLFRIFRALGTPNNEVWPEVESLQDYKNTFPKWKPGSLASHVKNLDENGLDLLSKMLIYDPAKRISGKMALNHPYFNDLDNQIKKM
Cyclin-dependent kinase 1/cyclin B1, sequence (P14635 whole entry, further chain): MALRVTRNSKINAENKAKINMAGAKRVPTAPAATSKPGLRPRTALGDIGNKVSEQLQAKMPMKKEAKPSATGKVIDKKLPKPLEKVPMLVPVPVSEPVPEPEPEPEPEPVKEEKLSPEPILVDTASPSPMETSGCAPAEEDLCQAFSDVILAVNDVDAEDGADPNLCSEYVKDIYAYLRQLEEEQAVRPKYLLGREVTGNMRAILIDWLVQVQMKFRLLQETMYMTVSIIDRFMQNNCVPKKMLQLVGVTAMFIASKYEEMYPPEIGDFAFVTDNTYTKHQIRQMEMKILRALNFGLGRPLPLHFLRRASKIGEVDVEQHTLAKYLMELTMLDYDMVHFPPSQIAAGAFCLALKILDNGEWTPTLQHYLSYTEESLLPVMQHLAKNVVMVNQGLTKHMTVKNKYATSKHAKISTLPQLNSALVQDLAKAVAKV

[3] = molecular target: Receptor-type tyrosine-protein kinase FLT3 (Homo sapiens, UniProt P36888); assay: Inhibition of recombinant FLT3 (unknown origin)
Receptor-type tyrosine-protein kinase FLT3, sequence (P36888 whole entry): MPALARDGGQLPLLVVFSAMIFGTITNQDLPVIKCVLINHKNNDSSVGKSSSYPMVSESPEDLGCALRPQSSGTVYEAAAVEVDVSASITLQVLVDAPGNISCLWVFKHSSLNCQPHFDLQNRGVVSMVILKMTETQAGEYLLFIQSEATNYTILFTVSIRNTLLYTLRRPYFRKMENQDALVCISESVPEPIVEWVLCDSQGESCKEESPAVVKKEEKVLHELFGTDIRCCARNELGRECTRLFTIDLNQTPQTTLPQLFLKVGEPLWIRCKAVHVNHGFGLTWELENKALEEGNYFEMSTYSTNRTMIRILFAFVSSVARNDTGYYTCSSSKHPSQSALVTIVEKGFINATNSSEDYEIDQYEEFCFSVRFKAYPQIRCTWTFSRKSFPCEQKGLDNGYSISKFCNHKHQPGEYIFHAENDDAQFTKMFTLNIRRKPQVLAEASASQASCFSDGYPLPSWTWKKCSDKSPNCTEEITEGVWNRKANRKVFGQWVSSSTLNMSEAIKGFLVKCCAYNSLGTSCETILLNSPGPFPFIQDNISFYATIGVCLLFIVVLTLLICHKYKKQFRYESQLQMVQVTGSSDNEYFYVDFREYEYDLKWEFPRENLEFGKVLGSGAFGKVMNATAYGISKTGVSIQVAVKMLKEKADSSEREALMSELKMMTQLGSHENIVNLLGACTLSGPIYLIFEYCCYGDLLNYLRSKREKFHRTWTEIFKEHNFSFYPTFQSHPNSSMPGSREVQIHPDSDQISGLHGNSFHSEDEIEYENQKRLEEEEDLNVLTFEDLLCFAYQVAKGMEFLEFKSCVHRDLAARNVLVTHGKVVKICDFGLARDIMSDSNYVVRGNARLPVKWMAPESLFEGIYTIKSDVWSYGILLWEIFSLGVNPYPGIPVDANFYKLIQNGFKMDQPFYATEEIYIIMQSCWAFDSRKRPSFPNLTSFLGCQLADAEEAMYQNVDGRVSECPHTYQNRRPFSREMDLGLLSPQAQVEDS

[4] = molecular target: Tyrosine-protein kinase Lyn (Homo sapiens, UniProt P07948); assay: Inhibition of recombinant LYN (unknown origin)
Tyrosine-protein kinase Lyn, sequence (P07948 whole entry): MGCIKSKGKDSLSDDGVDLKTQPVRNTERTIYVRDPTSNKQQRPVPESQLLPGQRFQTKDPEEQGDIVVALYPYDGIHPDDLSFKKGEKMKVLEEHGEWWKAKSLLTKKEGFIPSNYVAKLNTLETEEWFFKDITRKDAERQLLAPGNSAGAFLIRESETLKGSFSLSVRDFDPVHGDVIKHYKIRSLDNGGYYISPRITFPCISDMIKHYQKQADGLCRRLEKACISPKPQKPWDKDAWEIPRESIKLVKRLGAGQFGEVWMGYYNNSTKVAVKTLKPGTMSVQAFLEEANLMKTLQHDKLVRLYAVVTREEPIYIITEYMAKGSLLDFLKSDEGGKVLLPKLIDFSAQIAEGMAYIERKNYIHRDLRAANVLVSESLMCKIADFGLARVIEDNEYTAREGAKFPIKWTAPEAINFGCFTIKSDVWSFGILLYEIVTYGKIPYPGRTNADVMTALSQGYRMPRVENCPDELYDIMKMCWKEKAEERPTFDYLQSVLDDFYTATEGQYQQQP

[5] = molecular target: Serine/threonine-protein kinase 26 (Homo sapiens, UniProt Q9P289); assay: Inhibition of recombinant MST4 (unknown origin)
Serine/threonine-protein kinase 26, sequence (Q9P289 whole entry): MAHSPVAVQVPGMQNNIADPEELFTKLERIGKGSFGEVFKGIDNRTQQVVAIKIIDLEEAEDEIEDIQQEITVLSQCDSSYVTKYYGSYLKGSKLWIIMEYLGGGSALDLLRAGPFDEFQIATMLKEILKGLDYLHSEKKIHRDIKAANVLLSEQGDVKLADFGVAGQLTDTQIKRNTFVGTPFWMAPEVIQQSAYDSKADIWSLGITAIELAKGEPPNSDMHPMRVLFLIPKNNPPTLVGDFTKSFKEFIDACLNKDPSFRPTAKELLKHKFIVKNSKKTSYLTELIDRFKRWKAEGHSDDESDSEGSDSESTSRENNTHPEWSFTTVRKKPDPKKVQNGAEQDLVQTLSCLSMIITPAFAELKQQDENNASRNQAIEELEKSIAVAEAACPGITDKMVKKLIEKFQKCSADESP

SNB-75 = assay: Antiproliferative activity against human SNB-75 cells assessed as inhibition of cell growth incubated for 72 hrs by celltiter-glo assay; type: functional, cell-based; conditions: SNB-75, 72 h
HT1197 = assay: Antiproliferative activity against human HT1197 cells assessed as inhibition of cell growth incubated for 72 hrs by celltiter-glo assay; type: functional, cell-based; conditions: HT1197, 72 h
NCI/ADR-RES = assay: Antiproliferative activity against human NCI-ADR-RES cells assessed as inhibition of cell growth incubated for 72 hrs by celltiter-glo assay; type: functional, cell-based
HeLa [6] = assay: Antiproliferative activity against human HeLa cells assessed as inhibition of cell growth incubated for 72 hrs by celltiter-glo assay; type: functional, cell-based
SW-620 = assay: Antiproliferative activity against human SW620 cells assessed as inhibition of cell growth incubated for 72 hrs by celltiter-glo assay; type: functional, cell-based; conditions: SW-620, 72 h
COLO 205 = assay: Antiproliferative activity against human COLO 205 cells assessed as inhibition of cell growth incubated for 72 hrs by celltiter-glo assay; type: functional, cell-based; conditions: COLO 205, 72 h
[7] = Antiproliferative activity against human COLO 206F cells assessed as inhibition of cell growth incubated for 72 hrs by celltiter-glo assay; type: functional, cell-based
LoVo = assay: Antiproliferative activity against human LoVo cells assessed as inhibition of cell growth incubated for 72 hrs by celltiter-glo assay; type: functional, cell-based
HT-29 = assay: Antiproliferative activity against human HT-29 cells assessed as inhibition of cell growth incubated for 72 hrs by celltiter-glo assay; type: functional, cell-based; conditions: HT-29, 72 h
COLO-678 = assay: Antiproliferative activity against human COLO-678 cells assessed as inhibition of cell growth incubated for 72 hrs by celltiter-glo assay; type: functional, cell-based; conditions: COLO-678, 72 h
MOLT-4 = assay: Antiproliferative activity against human MOLT-4 cells assessed as inhibition of cell growth incubated for 72 hrs by celltiter-glo assay; type: functional, cell-based; conditions: MOLT-4, 72 h
[8] = Antiproliferative activity against human PL21 cells assessed as inhibition of cell growth incubated for 72 hrs by celltiter-glo assay; type: functional, cell-based; conditions: PL-21, 72 h
KARPAS-299 = assay: Antiproliferative activity against human KARPAS-299 cells assessed as inhibition of cell growth incubated for 72 hrs by celltiter-glo assay; type: functional, cell-based; conditions: KARPAS-299, 72 h
EKVX = assay: Antiproliferative activity against human EKVX cells assessed as inhibition of cell growth incubated for 72 hrs by celltiter-glo assay; type: functional, cell-based
NCI-H1975 = assay: Antiproliferative activity against human NCI-H1975 cells assessed as inhibition of cell growth incubated for 72 hrs by celltiter-glo assay; type: functional, cell-based; conditions: NCI-H1975, 72 h
SU-DHL-8 = assay: Antiproliferative activity against human SU-DHL-8 cells assessed as inhibition of cell growth incubated for 72 hrs by celltiter-glo assay; type: functional, cell-based; conditions: SU-DHL-8, 72 h
Granta-519 = assay: Antiproliferative activity against human Granta-519 cells assessed as inhibition of cell growth incubated for 72 hrs by celltiter-glo assay; type: functional, cell-based; conditions: Granta-519, 72 h
L-363 = assay: Antiproliferative activity against human L-363 cells assessed as inhibition of cell growth incubated for 72 hrs by celltiter-glo assay; type: functional, cell-based; conditions: L-363, 72 h
U-266 = assay: Antiproliferative activity against human U-266 cells assessed as inhibition of cell growth incubated for 72 hrs by celltiter-glo assay; type: functional, cell-based; conditions: U-266, 72 h
IGROV-1 = assay: Antiproliferative activity against human IGROV-1 cells assessed as inhibition of cell growth incubated for 72 hrs by celltiter-glo assay; type: functional, cell-based; conditions: IGROV-1, 72 h
DU-145 = assay: Antiproliferative activity against human DU-145 cells assessed as inhibition of cell growth incubated for 72 hrs by celltiter-glo assay; type: functional, cell-based; conditions: DU-145, 72 h
TK-10 = assay: Antiproliferative activity against human TK-10 cells assessed as inhibition of cell growth incubated for 72 hrs by celltiter-glo assay; type: functional, cell-based; conditions: TK-10, 72 h
[9] = Antiproliferative activity against human NPA cells assessed as inhibition of cell growth incubated for 72 hrs by celltiter-glo assay; type: functional, cell-based
U2OS [10] = assay: Induction of mitotic arrest in human U2OS cells expressing YFP-alpha-tubulin assessed as reduction in mitotic cells at 1 micromol/L by time-lapse microscopic analysis; type: functional, cell-based; conditions: dose 1.0 µmol/L
HeLa [11] = assay: Induction of mitotic arrest in human nocodazole-arrested HeLa cells assessed as delocalization of MAD1 at 1 micromol/L in presence of MG132; type: functional, cell-based; conditions: dose 1.0 µmol/L
HeLa [12] = assay: Induction of mitotic arrest in human nocodazole-arrested HeLa cells assessed as delocalization of BUB3 at 1 micromol/L in presence of MG132; type: functional, cell-based; conditions: dose 1.0 µmol/L
HeLa [13] = assay: Effect on HEC1 level in human nocodazole-arrested HeLa cells at 1 micromol/L in presence of MG132; type: functional, cell-based; conditions: dose 1.0 µmol/L
A2780 = assay: Induction of apoptosis in human A2780 cells assessed as effect on histone H2AX phosphorylation 0.2 to 1 micromol/L incubated for 2 to 72 hrs by Western blot analysis; type: functional, cell-based; conditions: dose 0.2-1 µmol/L, time 2-72 hrs
U2OS [14] = assay: Induction of mitotic arrest in human U2OS cells expressing YFP alpha-tubulin assessed as chromosome misalignment in metaphase incubated for 1 hr by DAPI staining based confocal microscopic analysis; type: functional, cell-based
U2OS [15] = assay: Induction of mitotic arrest in human U2OS cells expressing YFP alpha-tubulin assessed as chromosome misalignment in anaphase incubated for 1 hr by DAPI staining based confocal microscopic analysis; type: functional, cell-based
U2OS [16] = assay: Cytotoxicity against human U2OS cells expressing YFP-alpha tubulin assessed as cell death incubated for 86 hrs; type: functional, cell-based
HCT-116 = assay: Induction of apoptosis in human HCT-116 cells at 1 micromol/L incubated for 24 to 72 hrs by FACS/PI staining based flow cytometric analysis; type: functional; conditions: dose 1 µmol/L; time 24-72 hrs; at 1 µM
[17] = Clearance in Athymic nu-nu mouse at 10 mg/kg, iv measured upto 24 hrs by LC-MS/MS analysis; type: ADME, organism-based; conditions: in vivo
[18] = Cmax in Athymic nu-nu mouse at 10 mg/kg, iv measured upto 24 hrs by LC-MS/MS analysis; type: ADME, organism-based; conditions: in vivo
[19] = Volume of distribution at steady state in Athymic nu-nu mouse at 10 mg/kg, iv measured upto 24 hrs by LC-MS/MS analysis; type: ADME, organism-based; conditions: in vivo, read-out: Vdss
[20] = AUC in Athymic nu-nu mouse at 100 mg/kg, po measured upto 24 hrs by LC-MS/MS analysis; type: ADME, organism-based; conditions: in vivo

Protein-tyrosine kinase 6, sequence (Q13882 whole entry): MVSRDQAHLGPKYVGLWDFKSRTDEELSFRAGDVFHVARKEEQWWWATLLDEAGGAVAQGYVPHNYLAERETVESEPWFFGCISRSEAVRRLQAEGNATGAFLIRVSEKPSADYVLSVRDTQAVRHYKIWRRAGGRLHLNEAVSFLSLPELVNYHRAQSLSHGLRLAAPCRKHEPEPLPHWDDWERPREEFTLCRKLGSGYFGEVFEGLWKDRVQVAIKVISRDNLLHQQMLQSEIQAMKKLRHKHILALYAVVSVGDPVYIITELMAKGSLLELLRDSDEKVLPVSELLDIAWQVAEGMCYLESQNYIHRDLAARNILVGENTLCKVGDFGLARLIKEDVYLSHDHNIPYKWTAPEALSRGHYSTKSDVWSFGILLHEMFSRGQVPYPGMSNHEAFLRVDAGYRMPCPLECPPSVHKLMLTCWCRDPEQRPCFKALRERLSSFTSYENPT

CCc1cccc(CC)c1NC(=O)c1nn(C)c2c1CCc1cnc(Nc3ccc(C(=O)NC4CCN(C)CC4)cc3OC(F)(F)F)nc1-2
IC50 [1]: > 10000 nM | IC50 [2]: > 10000 nM | IC50 [3]: > 10000 nM | IC50 [4]: > 10000 nM | IC50 [5]: > 10000 nM | IC50 (SNB-75): 2200 nM | IC50 (HT1197): 8300 nM | IC50 (NCI/ADR-RES): 2480 nM | IC50 (HeLa [6]): 6460 nM | IC50 (SW-620): 472 nM | IC50 (COLO 205): 592 nM | IC50 [7]: 1240 nM | IC50 (LoVo): 1870 nM | IC50 (HT-29): 3920 nM | IC50 (COLO-678): 10000 nM | IC50 (MOLT-4): 1040 nM | IC50 [8]: 2960 nM | IC50 (KARPAS-299): 3530 nM | IC50 (EKVX): 6980 nM | IC50 (NCI-H1975): 10000 nM | IC50 (SU-DHL-8): 829 nM | IC50 (Granta-519): 1690 nM | IC50 (L-363): 1610 nM | IC50 (U-266): 5930 nM | IC50 (IGROV-1): 1150 nM | IC50 (DU-145): 1930 nM | IC50 (TK-10): 1540 nM | IC50 [9]: 2640 nM | Activity (U2OS [10]): Active | Activity (HeLa [11]): Active | Activity (HeLa [12]): Active | Activity (HeLa [13]): Active | Activity (A2780): Active | Activity (U2OS [14]): Active | Activity (U2OS [15]): Active | Activity (U2OS [16]): Active | Activity (HCT-116): 100% | clearance [17]: 10 mL/min/kg | Cmax [18]: 4.79 µM | Vd [19]: 5.45 L/kg | AUC at 24 h [20]: 50.7 µM·h
